Measured values: patent US20060173015A1, “Cyclohexyldiamines as selective alpha 1a/1d adrenoreceptor antagonists for the treatment of benign prostatic hypertrophy and lower urinary tract symptoms” (priority 2004, published 2006)

What was measured:
α1d-AR = target: T1, α1d-AR (Homo sapiens, UniProt P25100); experiment: α1-Adrenergic receptor radio-ligand (125I-HEAT) binding assay, α1d subtype; conditions: COS-7 cell membranes, 125I-HEAT; read-out: Receptor Binding, Ki α1d-AR
T1 construct: expressed in transfected cells; host or cells: COS-7
T1 sequence (P25100 1-572): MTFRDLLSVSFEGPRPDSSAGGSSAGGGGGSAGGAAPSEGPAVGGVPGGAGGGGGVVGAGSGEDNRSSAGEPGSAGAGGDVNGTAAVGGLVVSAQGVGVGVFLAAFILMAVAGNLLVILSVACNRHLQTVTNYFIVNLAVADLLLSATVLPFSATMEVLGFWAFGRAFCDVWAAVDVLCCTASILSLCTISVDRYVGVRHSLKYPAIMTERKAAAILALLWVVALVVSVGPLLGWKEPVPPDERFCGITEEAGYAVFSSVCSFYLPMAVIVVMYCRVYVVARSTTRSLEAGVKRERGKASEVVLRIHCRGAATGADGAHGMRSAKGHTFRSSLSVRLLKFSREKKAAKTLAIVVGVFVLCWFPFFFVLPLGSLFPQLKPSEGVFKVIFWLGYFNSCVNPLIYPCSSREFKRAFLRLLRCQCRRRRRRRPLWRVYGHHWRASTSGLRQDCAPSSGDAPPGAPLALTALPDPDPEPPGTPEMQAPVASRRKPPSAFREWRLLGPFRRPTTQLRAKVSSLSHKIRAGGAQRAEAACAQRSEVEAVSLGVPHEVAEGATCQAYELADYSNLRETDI
Method: (§1) α1-Adrenergic Receptor Binding Assay: Preparation of COS Cell Membranes
(§2) Membranes were prepared from COS-7 cells that had been transfected with one of the three α1-AR subtypes by the following method. COS cells from ten 100 mm tissue culture plates were scraped into 5 mL TE (50 mM Tris-HCl, 5 mM EDTA, pH 7.4). The cell suspension was disrupted with a Brinkman Polytron, setting 8, for 10 sec. The disrupted cells were centrifuged at 1000×g for 10 min at 4° C. Supernatants were centrifuged at 34,500×g for 20 min at 4° C. The membrane pellets were suspended in 2 mL TNE (50 mM Tris-HCl, 5 mM EDTA, 150 mM NaCl, pH7.4). An aliquot of the membrane suspension was stored at −70° C. until use. The protein concentration was determined using the BioRad DC protein assay kit following membrane solubilization with Triton X-100.
(§3) Radio-Ligand Binding Assay
Triplicate determinations of radio-ligand binding in the presence of increasing: concentrations of testing compound were made. The reagents were added to 96-well polypropylene plate wells using the Biomek 1000 robot (Beckman Instruments). […] The plate was incubated at rt for 1 hr. The contents of the wells were filtered through a GF/C membrane Unifilter plate (Packard Instruments) using the Packard Filtermate cell harvester. The filter plates were dried in a vacuum oven for 30 min at 40° C. 25 μL Microscint 20 liquid scintillation fluid (Packard Instuments) was added to each well. The radioactive content was analyzed in the TopCount microplate scintillation counter (Packard Instruments).

α1b-AR = target: T2, α1b-AR (Homo sapiens, UniProt P35368); experiment: α1-Adrenergic receptor radio-ligand (125I-HEAT) binding assay, α1b subtype; conditions: Receptor Binding, Ki α1b-AR, COS-7 cell membranes, 125I-HEAT
T2 sequence (P35368 1-520): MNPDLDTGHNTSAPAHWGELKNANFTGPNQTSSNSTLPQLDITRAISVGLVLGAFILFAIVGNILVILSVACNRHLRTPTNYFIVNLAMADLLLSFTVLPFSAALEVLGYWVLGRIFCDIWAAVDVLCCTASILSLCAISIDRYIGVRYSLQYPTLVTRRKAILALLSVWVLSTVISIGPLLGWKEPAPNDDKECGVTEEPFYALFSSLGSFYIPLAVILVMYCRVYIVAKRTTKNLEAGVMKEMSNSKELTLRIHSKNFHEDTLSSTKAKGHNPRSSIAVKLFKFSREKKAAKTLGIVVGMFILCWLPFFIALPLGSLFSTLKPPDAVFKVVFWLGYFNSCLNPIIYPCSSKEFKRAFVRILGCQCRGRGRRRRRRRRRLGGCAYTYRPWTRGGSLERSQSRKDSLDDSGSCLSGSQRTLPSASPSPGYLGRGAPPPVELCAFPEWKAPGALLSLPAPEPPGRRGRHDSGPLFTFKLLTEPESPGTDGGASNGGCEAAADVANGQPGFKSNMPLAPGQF

α1a-AR = target: T3, α1a-AR (Homo sapiens, UniProt P35348); experiment: α1-Adrenergic receptor radio-ligand (125I-HEAT) binding assay, α1a subtype; conditions: COS-7 cell membranes, 125I-HEAT
T3 construct: expressed in transfected cells; host or cells: COS-7
T3 sequence (P35348 1-466): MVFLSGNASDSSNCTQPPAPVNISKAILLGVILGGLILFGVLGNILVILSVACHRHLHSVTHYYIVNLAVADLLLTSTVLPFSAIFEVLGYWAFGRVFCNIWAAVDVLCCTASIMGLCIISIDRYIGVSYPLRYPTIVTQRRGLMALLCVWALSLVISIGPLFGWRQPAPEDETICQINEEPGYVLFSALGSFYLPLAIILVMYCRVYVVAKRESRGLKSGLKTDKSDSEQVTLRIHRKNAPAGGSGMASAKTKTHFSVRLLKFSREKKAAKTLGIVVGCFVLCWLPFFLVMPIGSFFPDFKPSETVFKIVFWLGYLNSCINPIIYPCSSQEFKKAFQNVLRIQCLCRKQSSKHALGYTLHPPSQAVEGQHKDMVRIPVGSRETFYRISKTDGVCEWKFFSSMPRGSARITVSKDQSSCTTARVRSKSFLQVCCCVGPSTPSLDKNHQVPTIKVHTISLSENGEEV
Method: as §1, §2, §3
Triplicate determinations of radio-ligand binding in the presence of increasing: concentrations of testing compound were made. The reagents were added to 96-well polypropylene plate wells using the Biomek 1000 robot (Beckman Instruments). Each assay well contained 140 μl TNE, 25 μL ^125I-HEAT (specific activity 2200 Ci/mmol, Dupont-NEN, 50 pM final), 10 μL testing compound dissolved in DMSO (1 pM to 10 μM in half-log increments, final), and 25 μL appropriate α1-AR membrane subtype suspension in TNE (0.5 ng/μL for the α1a and α1b subtypes and 13 ng/μL for the α1d subtype). The plate was incubated at rt for 1 hr. The contents of the wells were filtered through a GF/C membrane Unifilter plate (Packard Instruments) using the Packard Filtermate cell harvester. The filter plates were dried in a vacuum oven for 30 min at 40° C. 25 μL Microscint 20 liquid scintillation fluid (Packard Instuments) was added to each well. The radioactive content was analyzed in the TopCount microplate scintillation counter (Packard Instruments).

Structure (SMILES)	Ki (α1d-AR) [nM]	Ki (α1b-AR) [nM]	Ki (α1a-AR) [nM]
CC(C)Oc1ccccc1N1CCN([C@H]2CC[C@H](NS(=O)(=O)c3ccc(F)cc3)CC2)CC1 [Cpd 38, 4-Fluoro-N-trans-{4-[4-(2-isopropoxy-phenyl)-piperazin-1-yl]-cyclohexyl}-benzenesulfonamide]	36	301	1.3
CC(C)Oc1ccccc1N1CCN([C@H]2CC[C@@H](NS(=O)(=O)c3ccc(C(F)(F)F)cc3)CC2)CC1 [Cpd 9, N-cis-{4-[4-(2-Isopropoxy-phenyl)-piperazin-1-yl]-cyclohexyl}-4-trifluoromethyl-benzenesulfonamide]	18	124	25
CC(C)Oc1ccccc1N1CCN([C@H]2CC[C@H](NS(=O)(=O)c3cc(Cl)ccc3F)CC2)CC1 [Cpd 40, 5-Chloro-2-fluoro-N-trans-{4-[4-(2-isopropoxy-phenyl)-piperazin-1-yl]-cyclohexyl}-benzenesulfonamide]	27.3	441	8.9
COc1ccc(Cl)cc1S(=O)(=O)N[C@H]1CC[C@H](N2CCN(c3ccc(F)cc3OC(C)C)CC2)CC1 [Cpd 78, 5-Chloro-N-trans-{4-[4-(4-fluoro-2-isopropoxy-phenyl)-piperazin-1-yl]-cyclohexyl}-2-methoxy-benzenesulfonamide]	47	44	340
COc1ccc(S(=O)(=O)N[C@H]2CC[C@H](N3CCN(c4ccc(F)cc4OCC(F)(F)F)CC3)CC2)cc1OC [Cpd 80, N-trans-(4-{4-[4-Fluoro-2-(2,2,2-trifluoro-ethoxy)-phenyl]-piperazin-1-yl}-cyclohexyl)-3,4-dimethoxy-benzenesulfonamide]	38	87	21
Cc1ccc(S(=O)(=O)N[C@H]2CC[C@H](N3CCN(c4ccccc4OC(C)C)CC3)CC2)cc1Cl [Cpd 46, 3-Chloro-N-trans-{4-[4-(2-isopropoxy-phenyl)-piperazin-1-yl]-cyclohexyl}-4-methyl-benzenesulfonamide]	16	193	1.5
CC(C)Oc1ccccc1N1CCN([C@H]2CC[C@H](NS(=O)(=O)c3ccccc3[N+](=O)[O-])CC2)CC1 [Cpd 54]	27	236	1

The next compounds have a lower Ki (α1d-AR) than those just listed; values first:

Ki (α1d-AR) [nM]	Ki (α1b-AR) [nM]	Ki (α1a-AR) [nM]	Structure (SMILES)
12	200	3.9	CC(C)Oc1ccccc1N1CCN([C@H]2CC[C@H](NS(=O)(=O)Cc3ccccc3)CC2)CC1 [Cpd 62, N-trans-{4-[4-(2-Isopropoxy-phenyl)-piperazin-1-yl]-cyclohexyl}-C-phenyl-methanesulfonamide]
3.6	82	1.2	CC(C)Oc1ccccc1N1CCN([C@H]2CC[C@@H](NS(=O)(=O)Cc3ccccc3)CC2)CC1 [Cpd 57, N-cis-{4-[4-(2-Isopropoxy-phenyl)-piperazin-1-yl]-cyclohexyl}-C-phenyl-methanesulfonamide]
14	473	35.9	COc1ccc(C(F)(F)F)cc1S(=O)(=O)N[C@H]1CC[C@@H](N2CCN(c3ccccc3OC(C)C)CC2)CC1 [Cpd 20, N-cis-{4-[4-(2-Isopropoxy-phenyl)-piperazin-1-yl]-cyclohexyl}-2-methoxy-5-trifluoromethyl-benzenesulfonamide]
11.1	167	10.5	Cc1ccc(S(=O)(=O)N[C@H]2CC[C@@H](N3CCN(c4ccccc4OC(C)C)CC3)CC2)cc1Cl [Cpd 18, 3-Chloro-N-cis-{4-[4-(2-isopropoxy-phenyl)-piperazin-1-yl]-cyclohexyl}-4-methyl-benzenesulfonamide]
0.64	177	4.5	CC(C)Oc1ccccc1N1CCN([C@H]2CC[C@@H](NS(=O)(=O)c3ccc(Cl)cc3Cl)CC2)CC1 [Cpd 1, 2,4-Dichloro-N-cis-{4-[4-(2-isopropoxy-phenyl)-piperazine-1-yl]-cyclohexyl}-benzenesulfonamide]
8.5	196	17	COc1ccc(Cl)cc1S(=O)(=O)N[C@H]1CC[C@@H](N2CCN(c3ccc(F)cc3OCC(F)(F)F)CC2)CC1 [Cpd 76, 5-Chloro-N-cis-(4-{4-[4-fluoro-2-(2,2,2-trifluoro-ethoxy)-phenyl]-piperazin-1-yl}-cyclohexyl)-2-methoxy-benzenesulfonamide]
14.6	279	3.5	CC(C)Oc1ccccc1N1CCN([C@H]2CC[C@H](NS(=O)(=O)c3cnc(Cl)c(Br)c3)CC2)CC1 [Cpd 66, 5-Bromo-6-chloro-pyridine-3-sulfonic acid N-trans-{4-[4-(2-isopropoxy-phenyl)-piperazin-1-yl]-cyclohexyl}-amide]
8.3	34.8	54.2	COc1ccc(S(=O)(=O)N[C@H]2CC[C@H](N3CCN(c4ccccc4OCC(F)(F)F)CC3)CC2)cc1OC [Cpd 70]
2.5	201	6.3	CC(C)Oc1ccccc1N1CCN([C@H]2CC[C@@H](NS(=O)(=O)c3ccccc3[N+](=O)[O-])CC2)CC1 [Cpd 26]
2.8	118	12.5	CC(C)Oc1ccccc1N1CCN([C@H]2CC[C@H](NS(=O)(=O)c3ccccc3S(C)(=O)=O)CC2)CC1 [Cpd 33, N-trans-{4-[4-(2-Isopropoxy-phenyl)-piperazin-1-yl]-cyclohexyl}-2-methanesulfonyl-benzenesulfonamide]
3.4	190	23	CC(C)Oc1ccccc1N1CCN([C@H]2CC[C@@H](NS(=O)(=O)c3ccccc3C(F)(F)F)CC2)CC1 [Cpd 13, N-cis-{4-[4-(2-Isopropoxy-phenyl)-piperazin-1-yl]-cyclohexyl}-2-trifluoromethyl-benzenesulfonamide]
